Laboratory results from US20170166592A1, “AZA-BENZIMIDAZOLE INHIBITORS OF PAD4” (Padlock Therapeutics, Inc., priority 2015, published 2017).
Structures can show the parent of a compound that is named as a salt. Where two headings read alike, the source gives them in different places.

Columns and labels:
hPAD4 = hPAD4 (Homo sapiens, UniProt Q9UM07); experiment: PAD4 inhibition assay, RapidFire mass spectrometry (hPAD4 RFMS); assay type: biochemical
Procedure: Compounds of the present invention were assayed as inhibitors of PAD4 using the assay protocol described below.
Compounds were solubilised in 100% DMSO to achieve 100 mM final compound concentration. Compound stock solutions were stored at RT. A series of dilutions were prepared in DMSO and mixed 8 times with 20 μL, mixing volume. Final assay conditions were as follows:
Assay buffer (as aforementioned): 100 mM Tris-HCl (pH 7.6), 2 mM DTT, 1 mM CaCl2
Final concentrations: • 100 nM hPAD4 enzyme • 50 μM (8-fold sub-Km) substrate peptide • 0.5% DMSO
Total incubation time: 65 mins at 37° C.
Stop solution: 40 μl 5% TCA in ACN
0.25 μL of compound solution was added to 10 μL of 200 nM PAD4 in assay buffer (100 mM Tris-HCl pH 7.6, 2 mM DTT). After 5 mins, 10 μL of 100 μM of substrate in buffer (100 mM Tris-HCl pH 7.6, 2 mM DTT, 2 mM CaCl2) was added and the reaction incubated for 60 mins at 37 ° C. The enzymatic reaction was quenched by addition of 40 μl of 5% TCA in ACN (1.7% TCA final concentration) stop solution. Arginine containing substrate and citrulline containing product (+1 Da mass shift) were subjected to solid phase extraction on Agilent RapidFire (RF) 300 system and detected on a coupled, triple quadrupole Agilent 6460 QQQ mass spectrometry (MS) device under application of multiple reaction monitoring (MRM) for quantitation.

mPAD4 = mPAD4 (Mus musculus, UniProt Q9Z183); experiment: PAD4 inhibition assay, RapidFire mass spectrometry (mPAD4 RFMS); assay type: biochemical
Chain of mPAD4 (Q9Z183 whole entry): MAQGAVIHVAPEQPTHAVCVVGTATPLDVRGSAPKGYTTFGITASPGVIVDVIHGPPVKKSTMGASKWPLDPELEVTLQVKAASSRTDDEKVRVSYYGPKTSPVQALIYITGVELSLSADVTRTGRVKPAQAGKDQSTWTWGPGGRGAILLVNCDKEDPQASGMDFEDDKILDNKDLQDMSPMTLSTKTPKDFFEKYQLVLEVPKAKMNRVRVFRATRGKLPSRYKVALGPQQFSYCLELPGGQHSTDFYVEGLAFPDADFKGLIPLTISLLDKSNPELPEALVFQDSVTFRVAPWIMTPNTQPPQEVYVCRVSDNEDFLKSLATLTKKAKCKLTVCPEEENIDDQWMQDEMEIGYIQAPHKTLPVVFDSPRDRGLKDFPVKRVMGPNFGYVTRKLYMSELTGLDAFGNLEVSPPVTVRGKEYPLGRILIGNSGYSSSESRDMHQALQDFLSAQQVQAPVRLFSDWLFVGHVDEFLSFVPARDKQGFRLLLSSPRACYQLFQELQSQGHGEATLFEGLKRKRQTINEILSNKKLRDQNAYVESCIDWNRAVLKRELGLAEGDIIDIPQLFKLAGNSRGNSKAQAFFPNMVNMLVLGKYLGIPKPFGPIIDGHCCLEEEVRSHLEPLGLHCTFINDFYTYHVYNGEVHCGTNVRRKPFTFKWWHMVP

[1] = 100 nM hPAD4 enzyme, 50 μM substrate peptide, 65 mins at 37° C., read-out: hPAD4 RFMS IC50
[2] = pIC50=-log(IC50), read-out: hPAD4 RFMS pIC50 (converted)
[3] = pIC50=-log(IC50), read-out: mPAD4 RFMS pIC50 (converted)

Chain of hPAD4 (Q9UM07 whole entry): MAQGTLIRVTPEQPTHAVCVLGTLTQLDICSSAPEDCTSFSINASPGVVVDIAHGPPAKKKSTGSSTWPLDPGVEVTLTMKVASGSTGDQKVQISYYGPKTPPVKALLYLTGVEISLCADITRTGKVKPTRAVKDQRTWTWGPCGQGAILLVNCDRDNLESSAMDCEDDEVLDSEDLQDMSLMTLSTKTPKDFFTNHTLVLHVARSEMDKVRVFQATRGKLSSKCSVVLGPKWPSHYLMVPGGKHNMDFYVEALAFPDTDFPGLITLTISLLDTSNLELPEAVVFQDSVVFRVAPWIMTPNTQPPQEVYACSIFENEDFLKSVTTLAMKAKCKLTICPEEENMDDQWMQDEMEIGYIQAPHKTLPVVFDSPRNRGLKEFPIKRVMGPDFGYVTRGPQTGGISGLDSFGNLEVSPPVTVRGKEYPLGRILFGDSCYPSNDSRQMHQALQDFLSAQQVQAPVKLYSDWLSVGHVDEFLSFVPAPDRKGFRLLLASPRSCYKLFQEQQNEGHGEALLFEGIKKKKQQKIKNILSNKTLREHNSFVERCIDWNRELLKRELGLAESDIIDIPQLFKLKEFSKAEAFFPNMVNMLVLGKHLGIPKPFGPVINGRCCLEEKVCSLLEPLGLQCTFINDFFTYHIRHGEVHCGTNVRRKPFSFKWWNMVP

Row | Structure (SMILES) | IC50 (hPAD4; [1]) | IC50 (hPAD4; [2]) | IC50 (mPAD4; [3]) | IC50 (mPAD4; read-out: mPAD4 RFMS IC50) | hPAD4 RFMS pIC50 (hPAD4; pIC50=-log(IC50))
1 | Cn1c(-c2cc3cccnc3n2CC2CC2)nc2cc(C(=O)N3CC[C@H]4CCN[C@H]4C3)cnc21 (single isomer, unassigned) [Compound I-9, hydrochloride] | ≥ 10000 nM | 10000 to 100000 nM | – | – | –
2 | Cn1c(-c2cc3cccnc3n2CC2CC2)nc2cc(C(=O)N3CC[C@@H]4CCN[C@@H]4C3)cnc21 (single isomer, unassigned) [Compound I-10, hydrochloride] | 1000 to 5000 nM | 1000 to 10000 nM | 1000 to 10000 nM | 5000 to 10000 nM | –
3 | Cn1c(-c2cc3cccnc3n2CC(F)(F)F)nc2cc(C(=O)N3CC[C@@H]4CCN[C@@H]4C3)cnc21 [Compound I-1] | ≥ 10000 nM | 10000 to 100000 nM | – | – | –
4 | Cn1c(-c2cc3cccnc3n2CC(F)(F)F)nc2cc(C(=O)N3CC[C@H]4CCN[C@H]4C3)cnc21 [Compound I-3] | ≥ 10000 nM | – | – | – | –
5 | CCn1c(-c2nc3cc(C(=O)N4CCC[C@@H](N)C4)cnc3n2CC)cc2cccnc21 [Compound I-4] | 5000 to 10000 nM | 1000 to 10000 nM | 1000 to 10000 nM | 1000 to 5000 nM | –
6 | Cn1c(-c2cc3cccnc3n2CC(F)(F)F)nc2cc(C(=O)N3CCC[C@@H](N)C3)cnc21 [Compound I-5] | ≥ 10000 nM | 10000 to 100000 nM | – | – | –
7 | Cn1c(-c2cc3cccnc3n2CC(F)(F)F)nc2cc(C(=O)N3CCC4CCNC4C3)cnc21 (centres unmarked) [Compound I-6] | ≥ 10000 nM | 10000 to 100000 nM | – | – | –
8 | Cn1c(-c2cc3cccnc3n2CC2CC2)nc2cc(C(=O)N3CCC[C@@H](N)C3)cnc21 [Compound I-7] | 1000 to 5000 nM | 1000 to 10000 nM | ≤ 1000 nM | ≤ 1000 nM | –
9 | Cn1c(-c2cc3cccnc3n2CC2CC2)nc2cc(C(=O)N3CCC4CCNC4C3)cnc21 (centres unmarked) [Compound I-8, 2-[1-(cyclopropylmethyl)-1H-pyrrolo[2,3-b]pyridin-2-yl]-3-methyl-6-{octahydro-1H-pyrrolo[2,3-c]pyridine-6-carbonyl}-3H-imidazo[4,5-b]pyridine hydrochloride] | 5000 to 10000 nM | 1000 to 10000 nM | – | – | –
10 | Cn1c(-c2cc3cccnc3n2CC(C)(F)F)nc2cc(C(=O)N3CCC[C@@H](N)C3)cnc21 [Compound I-11] | 5000 to 10000 nM | 1000 to 10000 nM | 1000 to 10000 nM | 5000 to 10000 nM | –
11 | N[C@@H]1CCCN(C(=O)c2cnc3c(c2)nc(-c2cc4cccnc4n2CC2CC2)n3CC(F)F)C1 [Compound I-12] | 1000 to 5000 nM | 1000 to 10000 nM | 1000 to 10000 nM | 1000 to 5000 nM | –
12 | Cn1c(-c2cc3cccnc3n2CC2CC2)nc2cc(C(=O)N3C[C@@H](N)C[C@H](F)C3)cnc21 [Compound I-13] | 1000 to 5000 nM | 1000 to 10000 nM | ≤ 1000 nM | ≤ 1000 nM | –
13 | Cn1c(-c2cc3cc(F)c(F)nc3n2CC2CC2)nc2cc(C(=O)N3CCC[C@@H](N)C3)cnc21 [Compound I-14] | 1000 to 5000 nM | 1000 to 10000 nM | ≤ 1000 nM | ≤ 1000 nM | –
14 | CCn1c(-c2cc3ccc(OC)nc3n2CC2CC2)nc2cc(C(=O)N3CCC[C@@H](N)C3)cnc21 [Compound I-16] | ≤ 1000 nM | ≤ 1000 nM | ≤ 1000 nM | ≤ 1000 nM | –
15 | Cn1c(-c2cc3cccnc3n2CC(F)(F)F)nc2cc(C(=O)N3CCC4CCNC4C3)cnc21 (centres unmarked) [Compound I-19] | ≥ 10000 nM | – | – | – | –
16 | Cn1c(-c2cc3cccnc3n2CC(F)(F)F)nc2cc(C(=O)N3CC[C@H]4CCN[C@H]4C3)cnc21 [Compound I-20] | ≥ 10000 nM | 10000 to 100000 nM | – | – | –
17 | Cn1c(-c2cc3cccnc3n2CC(F)(F)F)nc2cc(C(=O)N3CC[C@@H]4CCN[C@@H]4C3)cnc21 [Compound I-21] | ≥ 10000 nM | – | – | – | E/F
18 | CCn1c(-c2cc3cccnc3n2CC2CC2)nc2cc(C(=O)N3CCC[C@@H](N)C3)cnc21 [Compound I-22] | 1000 to 5000 nM | 1000 to 10000 nM | ≤ 1000 nM | ≤ 1000 nM | –
19 | Cn1c(-c2cc3cccnc3n2CC2CC2)nc2cc(C(=O)N3CCC4CCNC4C3)cnc21 (centres unmarked) [Compound I-24] | 5000 to 10000 nM | – | – | – | –
20 | Cn1c(-c2cc3cccnc3n2CC2CC2)nc2cc(C(=O)N3CC[C@H]4CCN[C@H]4C3)cnc21 [Compound I-25] | ≥ 10000 nM | 10000 to 100000 nM | – | – | –

Row | Structure (SMILES) | IC50 (hPAD4; [1]) | IC50 (hPAD4; [2]) | IC50 (mPAD4; [3]) | IC50 (mPAD4; read-out: mPAD4 RFMS IC50) | hPAD4 RFMS pIC50 (hPAD4; pIC50=-log(IC50))
21 | Cn1c(-c2cc3cccnc3n2CC2CC2)nc2cc(C(=O)N3CC[C@@H]4CCN[C@@H]4C3)cnc21 [Compound I-26] | 1000 to 5000 nM | 1000 to 10000 nM | 1000 to 10000 nM | 5000 to 10000 nM | –
22 | Cn1c(-c2cc3cc(F)c(F)cc3n2CC2CC2)nc2cc(C(=O)N3CCC[C@@H](N)C3)cnc21 [Compound I-30] | 1000 to 5000 nM | 1000 to 10000 nM | ≤ 1000 nM | ≤ 1000 nM | –
23 | CC1CCC(N)CN1C(=O)c1cnc2c(c1)nc(-c1cc3cccnc3n1CC1CC1)n2C (centres unmarked) [Compound I-32] | 1000 to 5000 nM | 1000 to 10000 nM | 1000 to 10000 nM | 5000 to 10000 nM | –
24 | CCn1c(-c2nc3cc(C(=O)N4C[C@H]5CC[C@@H]4[C@@H]5N)cnc3n2C)cc2ccc(OC)nc21 [Compound I-37] | ≤ 1000 nM | ≤ 1000 nM | ≤ 1000 nM | ≤ 1000 nM | –
25 | CCn1c(-c2nc3cc(C(=O)N4C[C@H]5CC[C@@H]4[C@@H]5N)cnc3n2C)cc2cccnc21 [Compound I-39] | 1000 to 5000 nM | 1000 to 10000 nM | 1000 to 10000 nM | 1000 to 5000 nM | –
26 | Cn1c(-c2cc3cccnc3n2CC2CC2)nc2cc(C(=O)N3C[C@H]4CC[C@@H]3[C@@H]4N)cnc21 [Compound I-41] | ≤ 1000 nM | ≤ 1000 nM | ≤ 1000 nM | ≤ 1000 nM | –
27 | CCn1c(-c2nc3cc(C(=O)N4CCC[C@@H](N)C4)cnc3n2CCOC)cc2cccnc21 [Compound I-42] | ≥ 10000 nM | 10000 to 100000 nM | 1000 to 10000 nM | 1000 to 5000 nM | –
28 | CCn1c(-c2nc3cc(C(=O)N4C[C@H]5CC[C@@H]4[C@@H]5N)cnc3n2CCOC)cc2cccnc21 [Compound I-43] | 1000 to 5000 nM | 1000 to 10000 nM | 1000 to 10000 nM | 1000 to 5000 nM | –
29 | COc1ccc2cc(-c3nc4cc(C(=O)N5C[C@H]6CC[C@@H]5[C@@H]6N)cnc4n3C)n(CC3CC3)c2n1 [Compound I-44] | ≤ 1000 nM | ≤ 1000 nM | ≤ 1000 nM | ≤ 1000 nM | –
30 | COCCn1c(-c2cc3cccnc3n2CC2CC2)nc2cc(C(=O)N3C[C@H]4CC[C@@H]3[C@@H]4N)cnc21 [Compound I-45] | ≤ 1000 nM | ≤ 1000 nM | 1000 to 10000 nM | 1000 to 5000 nM | –
31 | COCCn1c(-c2cc3cccnc3n2CC2CC2)nc2cc(C(=O)N3CCC[C@@H](N)C3)cnc21 [Compound I-46] | 1000 to 5000 nM | 1000 to 10000 nM | 1000 to 10000 nM | 1000 to 5000 nM | –
32 | COCCn1c(-c2cc3ccc(OC)nc3n2CC2CC2)nc2cc(C(=O)N3C[C@H]4CC[C@@H]3[C@@H]4N)cnc21 [Compound I-47] | ≤ 1000 nM | ≤ 1000 nM | ≤ 1000 nM | ≤ 1000 nM | –
33 | CCn1c(-c2nc3cc(C(=O)N4C[C@H]5CC[C@@H]4[C@@H]5N)cnc3n2CCOC)cc2ccc(OC)nc21 [Compound I-48] | ≤ 1000 nM | ≤ 1000 nM | 1000 to 10000 nM | 1000 to 5000 nM | –
34 | CCn1c(-c2nc3cc(C(=O)N4CCC[C@@H](N)C4)cnc3n2CCOC)cc2ccc(OC)nc21 [Compound I-49] | 5000 to 10000 nM | 1000 to 10000 nM | 1000 to 10000 nM | 1000 to 5000 nM | –
35 | CO[C@]1(C)C[C@H](Cn2c(-c3cc4cccnc4n3CC3CC3)nc3cc(C(=O)N4C[C@H]5CC[C@@H]4[C@@H]5N)cnc32)C1 [Compound I-50] | ≤ 1000 nM | ≤ 1000 nM | ≤ 1000 nM | ≤ 1000 nM | –
36 | CCn1c(-c2nc3cc(C(=O)N4C[C@H]5CC[C@@H]4[C@@H]5N)cnc3n2C[C@H]2C[C@@](C)(OC)C2)cc2ccc(OC)nc21 [Compound I-51] | ≤ 1000 nM | ≤ 1000 nM | ≤ 1000 nM | ≤ 1000 nM | –
37 | Cn1c(-c2cc3ccc(C(F)(F)F)nc3n2CC2CC2)nc2cc(C(=O)N3C[C@H]4CC[C@@H]3[C@@H]4N)cnc21 [Compound I-52] | ≤ 1000 nM | ≤ 1000 nM | ≤ 1000 nM | ≤ 1000 nM | –
38 | COc1ccc2cc(-c3nc4cc(C(=O)N5C[C@H]6CC[C@@H]5[C@@H]6N)cnc4n3C[C@H]3C[C@@](C)(OC)C3)n(CC3CC3)c2n1 [Compound I-53] | ≤ 1000 nM | ≤ 1000 nM | ≤ 1000 nM | ≤ 1000 nM | –
39 | N[C@@H]1[C@@H]2CC[C@H]1N(C(=O)c1cnc3c(c1)nc(-c1cc4cccnc4n1CC1CC1)n3CC(F)F)C2 [Compound I-54] | ≤ 1000 nM | ≤ 1000 nM | ≤ 1000 nM | ≤ 1000 nM | –
